US11180474B2 (BRISTOL-MYERS SQUIBB COMPANY, priority 2016, dated 2021)
Structures can show the parent of a compound that is named as a salt.

Tests used:
human TLR9 = target: T1, human TLR9 (Homo sapiens, UniProt Q9NR96); experiment: TLR9 inhibition reporter assay (HEK-Blue cells, SEAP reporter, ODN2006 stimulation); type: cell-based; settings: HEK-Blue cells overexpressing human TLR9, ODN2006 5 nM
T1 construct: host or cells: HEK-Blue cells
T1 sequence (Q9NR96 26-1032): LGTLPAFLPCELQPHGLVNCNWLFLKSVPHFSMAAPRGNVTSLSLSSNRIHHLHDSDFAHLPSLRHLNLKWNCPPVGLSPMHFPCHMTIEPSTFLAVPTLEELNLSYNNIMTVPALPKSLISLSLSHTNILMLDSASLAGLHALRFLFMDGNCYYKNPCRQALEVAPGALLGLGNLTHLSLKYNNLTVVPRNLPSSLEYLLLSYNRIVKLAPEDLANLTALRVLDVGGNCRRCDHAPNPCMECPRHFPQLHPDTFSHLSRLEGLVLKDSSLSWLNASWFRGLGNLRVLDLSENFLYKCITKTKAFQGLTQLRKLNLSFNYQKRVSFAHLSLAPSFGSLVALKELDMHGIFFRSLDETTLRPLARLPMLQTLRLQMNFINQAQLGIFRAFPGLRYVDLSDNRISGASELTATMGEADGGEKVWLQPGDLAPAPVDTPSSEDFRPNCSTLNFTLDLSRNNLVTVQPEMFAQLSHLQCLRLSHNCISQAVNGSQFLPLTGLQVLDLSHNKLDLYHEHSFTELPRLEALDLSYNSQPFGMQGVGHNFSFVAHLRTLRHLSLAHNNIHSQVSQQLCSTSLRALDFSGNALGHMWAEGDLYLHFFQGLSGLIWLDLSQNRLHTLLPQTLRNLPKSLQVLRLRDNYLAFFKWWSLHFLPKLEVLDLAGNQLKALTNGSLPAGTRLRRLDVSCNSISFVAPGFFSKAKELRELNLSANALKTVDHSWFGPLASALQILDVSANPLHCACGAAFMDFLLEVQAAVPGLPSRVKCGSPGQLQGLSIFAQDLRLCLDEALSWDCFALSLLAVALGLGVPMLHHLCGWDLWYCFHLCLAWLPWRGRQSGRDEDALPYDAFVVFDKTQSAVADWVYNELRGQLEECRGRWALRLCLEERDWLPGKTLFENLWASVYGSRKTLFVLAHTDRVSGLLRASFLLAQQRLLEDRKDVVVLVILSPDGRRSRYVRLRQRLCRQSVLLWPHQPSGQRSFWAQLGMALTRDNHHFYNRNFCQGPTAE
In short: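 Dose–response from 0.05 nM to 50 μM was run in HEK-Blue human TLR7, TLR8 and TLR9 reporter cells. After 30 min at room temperature with compound, ligand was added (TLR7 gardiquimod 7.5 μM; TLR8 R848 15.9 μM; TLR9 ODN2006 5 nM) and SEAP measured next day, at 22 h.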

human TLR8 = target: T2, human TLR8 (Homo sapiens, UniProt Q9NR97); experiment: TLR8 inhibition reporter assay (HEK-Blue cells, SEAP reporter, R848 stimulation); type: cell-based; settings: HEK-Blue cells overexpressing human TLR8, R848 15.9 μM
T2 construct: host or cells: HEK-Blue cells
T2 sequence (Q9NR97 27-1041): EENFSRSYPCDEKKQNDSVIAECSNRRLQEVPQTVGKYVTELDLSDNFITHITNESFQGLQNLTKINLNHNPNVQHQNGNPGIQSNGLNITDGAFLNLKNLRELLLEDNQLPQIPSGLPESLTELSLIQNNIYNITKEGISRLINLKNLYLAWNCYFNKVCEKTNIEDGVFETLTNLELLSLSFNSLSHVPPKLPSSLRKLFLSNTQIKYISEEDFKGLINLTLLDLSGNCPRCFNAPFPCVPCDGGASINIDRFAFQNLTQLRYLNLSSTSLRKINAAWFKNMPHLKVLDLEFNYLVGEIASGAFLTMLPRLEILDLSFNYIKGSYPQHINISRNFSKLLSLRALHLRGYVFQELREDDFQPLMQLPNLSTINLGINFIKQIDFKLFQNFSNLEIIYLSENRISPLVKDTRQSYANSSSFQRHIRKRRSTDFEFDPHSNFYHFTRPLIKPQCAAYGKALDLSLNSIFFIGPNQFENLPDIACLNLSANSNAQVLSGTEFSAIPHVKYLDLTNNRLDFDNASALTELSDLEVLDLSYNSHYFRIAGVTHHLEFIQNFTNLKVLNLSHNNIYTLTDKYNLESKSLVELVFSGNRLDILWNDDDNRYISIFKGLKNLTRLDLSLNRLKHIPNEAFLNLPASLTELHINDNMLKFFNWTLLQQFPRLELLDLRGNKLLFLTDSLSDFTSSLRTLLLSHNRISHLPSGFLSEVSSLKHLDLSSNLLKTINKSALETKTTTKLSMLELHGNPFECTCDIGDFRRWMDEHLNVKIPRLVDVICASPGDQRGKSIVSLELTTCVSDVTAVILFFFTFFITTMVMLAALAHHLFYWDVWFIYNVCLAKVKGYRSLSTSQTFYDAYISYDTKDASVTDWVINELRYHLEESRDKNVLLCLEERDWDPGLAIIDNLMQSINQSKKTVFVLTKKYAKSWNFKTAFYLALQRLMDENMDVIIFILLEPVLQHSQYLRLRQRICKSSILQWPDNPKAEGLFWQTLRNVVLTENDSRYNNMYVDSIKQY
In short: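 In this cell reporter format, test compounds at 0.05 nM-50 μM final incubate 22 h with seeded cells (TLR7 15000, TLR8 20,000 per well). SEAP read-out by HEK-Blue Detection medium yields % inhibition relative to agonist/DMSO and known-inhibitor wells.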

IC50 (human TLR9) [nM] | IC50 (human TLR8) [nM] | Structure (SMILES)
2020 | 163 | COc1ccc(-c2[nH]c3ccc(C4CCN(C(=O)CNC5CCC(N(C)C)CC5)CC4)cc3c2C(C)C)cc1OC (stereo not shown) [Example 215, 1-(4-(2-(3,4-dimethoxyphenyl)-3-isopropyl-1H-indol-5-yl)piperidin-1-yl)-2-((4-(dimethylamino)cyclohexyl)amino)ethan-1-one]
≥ 50000 | 9780 | CCc1c(-c2ccc(OC)c(OC)c2)[nH]c2ccc(C3CCN(C4CCN(Cc5ccc(-c6ccccc6)s5)CC4)CC3)cc12 [Example 141, 2-(3,4-dimethoxyphenyl)-3-ethyl-5-(1′-((5-phenylthiophen-2-yl)methyl)-[1,4′-bipiperidin]-4-yl)-1H-indole]
657 | 160 | CCc1c(-c2ccc(OC)c(OC)c2)[nH]c2ccc(C3CCN(C4CCN(Cc5ccn(C)n5)CC4)CC3)cc12 [Example 133, 2-(3,4-dimethoxyphenyl)-3-ethyl-5-(1′-((1-methyl-1H-pyrazol-3-yl)methyl)-[1,4′-bipiperidin]-4-yl)-1H-indole]
991 | 132 | CCc1c(-c2ccc(OC)c(OC)c2)[nH]c2ccc(C3CCN(C(=O)C4CCNCC4)CC3)cc12 [Example 186, (4-(2-(3,4-dimethoxyphenyl)-3-ethyl-1H-indol-5-yl)piperidin-1-yl)(piperidin-4-yl) methanone]
221 | 247 | COc1ccc(-c2[nH]c3ccc(C4CCN(C5CCN(CC(C)C)CC5)CC4)cc3c2C)cc1OC [Example 6, 2-(3,4-dimethoxyphenyl)-5-(1′-isobutyl-[1,4′-bipiperidin]-4-yl)-3-methyl-1H-indole]
10200 | 838 | CCc1c(-c2ccc(OC)c(OC)c2)[nH]c2ccc(C3CCN(C(=O)c4ccncc4)CC3)cc12 [Example 183, (4-(2-(3,4-dimethoxyphenyl)-3-ethyl-1H-indol-5-yl)piperidin-1-yl)(pyridin-4-yl) methanone]
5580 | 21 | COc1ccc(-c2[nH]c3ccc(C4CCN(C(=O)CNC(CO)CO)CC4)cc3c2C(C)C)cc1OC [Example 220, 2-((1,3-dihydroxypropan-2-yl)amino)-1-(4-(2-(3,4-dimethoxyphenyl)-3-isopropyl-1H-indol-5-yl)piperidin-1-yl)ethan-1-one]
870 | 41 | CCc1c(-c2ccc(OC)c(OC)c2)[nH]c2ccc(C3CCN(C(=O)CN4CCCC(C(=O)N(CC)CC)C4)CC3)cc12 (stereo not shown) [Example 168, 1-(2-(4-(2-(3,4-dimethoxyphenyl)-3-ethyl-1H-indol-5-yl)piperidin-1-yl)-2-oxoethyl)-N,N-diethylpiperidine-3-carboxamide]
3380 | 26 | CCc1c(-c2ccc(OC)c(OC)c2)[nH]c2ccc(C3CCN(C(=O)CNCCO)CC3)cc12 [Example 159, 1-(4-(2-(3,4-dimethoxyphenyl)-3-ethyl-1H-indol-5-yl)piperidin-1-yl)-2-((2-hydroxyethyl)amino) ethan-1-one]
2070 | 136 | CCc1c(-c2ccc(OC)c(OC)c2)[nH]c2ccc(C3CCN(C(=O)C4CCCNC4)CC3)cc12 (stereo not shown) [Example 184, (4-(2-(3,4-dimethoxyphenyl)-3-ethyl-1H-indol-5-yl)piperidin-1-yl)(piperidin-3-yl)methanone]
481 | 114 | CCc1c(-c2ccc(OC)c(OC)c2)[nH]c2ccc(C3CCN(C4CCN(Cc5coc(C)n5)CC4)CC3)cc12 [Example 126, 4-((4-(2-(3,4-dimethoxyphenyl)-3-ethyl-1H-indol-5-yl)-[1,4′-bipiperidin]-1′-yl)methyl)-2-methyloxazole]
6660 | 286 | CCN(CC)C(=O)CN(C)CC(=O)N1CCC(c2ccc3[nH]c(-c4ccc(OC)c(OC)c4)c(C(C)C)c3c2)CC1 [Example 203, 2-((2-(4-(2-(3,4-dimethoxyphenyl)-3-isopropyl-1H-indol-5-yl)piperidin-1-yl)-2-oxoethyl)(methyl)amino)-N,N-diethylacetamide, TFA]
547 | 364 | CCc1c(-c2ccc(OC)c(OC)c2)[nH]c2ccc(C3CCN(C4CCN(Cc5cnc(C)[nH]5)CC4)CC3)cc12 [Example 153, 2-(3,4-dimethoxyphenyl)-3-ethyl-5-(1′-((2-methyl-1H-imidazol-5-yl)methyl)-[1,4′-bipiperidin]-4-yl)-1H-indole]
202 | 201 | COc1ccc(-c2[nH]c3ccc(C4CCN(C5CCN(C(C)C)CC5)CC4)cc3c2C)cc1OC [Example 10, 2-(3,4-dimethoxyphenyl)-5-(1′-isopropyl-[1,4′-bipiperidin]-4-yl)-3-methyl-1H-indole]
77 | 2230 | COc1ccc(-c2[nH]c3cc(C)c(C4CCN(C5CCN(C(C)C)CC5)CC4)cc3c2C)cc1OC [Example 115, 2-(3,4-dimethoxyphenyl)-5-(1′-isopropyl-[1,4′-bipiperidin]-4-yl)-3,6-dimethyl-1H-indole-di-trifluoroacetic acid]
653 | 25 | COc1ccc(-c2[nH]c3ccc(C4CCN(C5CCNCC5)CC4)cc3c2C(C)C)cc1OC [Example 197, 5-([1,4′-bipiperidin]-4-yl)-2-(3,4-dimethoxyphenyl)-3-isopropyl-1H-indole dihydrochloride]
444 | 206 | CCc1c(-c2ccc(OC)c(OC)c2)[nH]c2ccc(C3CCN(C4CCN(Cc5sccc5C)CC4)CC3)cc12 [Example 139, 2-(3,4-dimethoxyphenyl)-3-ethyl-5-(1′-((3-methylthiophen-2-yl)methyl)-[1,4′-bipiperidin]-4-yl)-1H-indole]
6230 | 792 | CCc1c(-c2ccc(OC)c(OC)c2)[nH]c2ccc(C3CCN(C4CCN(Cc5csnn5)CC4)CC3)cc12 [Example 130, 4-((4-(2-(3,4-dimethoxyphenyl)-3-ethyl-1H-indol-5-yl)-[1,4′-bipiperidin]-1′-yl)methyl)-1,2,3-thiadiazole]
2240 | 25 | CCc1c(-c2ccc(OC)c(OC)c2)[nH]c2ccc(C3CCN(C(=O)CN4CC[C@@H](O)C4)CC3)cc12 [Example 173, (R)-1-(4-(2-(3,4-dimethoxyphenyl)-3-ethyl-1H-indol-5-yl)piperidin-1-yl)-2-(3-hydroxypyrrolidin-1-yl)ethan-1-one]
14100 | 2060 | CCc1c(-c2ccc(OC)c(OC)c2)[nH]c2ccc(C3CCN(C(=O)C(C)(C)OC(C)=O)CC3)cc12 [Example 175, 1-(4-(2-(3,4-dimethoxyphenyl)-3-ethyl-1H-indol-5-yl)piperidin-1-yl)-2-methyl-1-oxopropan-2-yl acetate]
